Results: PMC7848910, “Multimodularity of a GH10 Xylanase Found in the Termite Gut Metagenome” (Applied and Environmental Microbiology, 2021)

What was measured:
Assay in all cases: microscale thermophoresis, initial fluorescence analysis, RED-NHS labelled protein
Format in all cases: binding
Conditions in all cases: 50 mM phosphate pH 7, 0.05% Pluronic F-127
[1] = target: T1, Pm25ΔCBMs (M6; M7 = Pm25ΔCBMs E546A) (termite gut metagenome, UniProt S0DFK9, E546A, form not given)
T1 construct: gene Pm25; Pm25 without its two inserted CBM4s (catalytic domain 66-151 and 514-753); synthetic gene, E. coli Tuner(DE3), TALON-purified

CBM4-1 (M8) = target: T2, CBM4-1 (M8) (termite gut metagenome, UniProt S0DFK9)
T2 construct: gene Pm25; isolated CBM4-1 domain, L167-L320 by primer name (domain 161-321), pET28a(+), E. coli Tuner(DE3), TALON-purified

CBM4-2 (M9) = target: T3, CBM4-2 (M9) (termite gut metagenome, UniProt S0DFK9)
T3 construct: gene Pm25; isolated CBM4-2 domain, D332-D484 by primer name (domain 324-486), pET28a(+), E. coli Tuner(DE3), TALON-purified
T3 sequence (S0DFK9 332-484 limits assumed): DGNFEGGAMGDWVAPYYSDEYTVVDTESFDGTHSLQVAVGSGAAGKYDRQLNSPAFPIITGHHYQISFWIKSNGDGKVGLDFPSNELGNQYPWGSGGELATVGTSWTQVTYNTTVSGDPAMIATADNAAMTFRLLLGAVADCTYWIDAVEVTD

T1 sequence (S0DFK9 30-160 limits assumed, stated change not applied): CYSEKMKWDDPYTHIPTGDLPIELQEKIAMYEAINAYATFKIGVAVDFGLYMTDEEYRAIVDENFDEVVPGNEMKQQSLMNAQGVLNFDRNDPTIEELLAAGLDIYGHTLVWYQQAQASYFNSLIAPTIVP
T1 sequence (S0DFK9 487-776 E546A limits assumed): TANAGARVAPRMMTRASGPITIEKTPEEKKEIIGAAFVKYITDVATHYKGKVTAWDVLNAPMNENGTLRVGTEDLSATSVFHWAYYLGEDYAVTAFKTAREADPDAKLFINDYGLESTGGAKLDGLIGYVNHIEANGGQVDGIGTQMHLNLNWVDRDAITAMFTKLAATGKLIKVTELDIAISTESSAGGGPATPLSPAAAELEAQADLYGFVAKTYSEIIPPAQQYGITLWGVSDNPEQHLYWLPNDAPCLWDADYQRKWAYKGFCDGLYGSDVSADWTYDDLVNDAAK
T2 sequence (S0DFK9 167-320 limits assumed): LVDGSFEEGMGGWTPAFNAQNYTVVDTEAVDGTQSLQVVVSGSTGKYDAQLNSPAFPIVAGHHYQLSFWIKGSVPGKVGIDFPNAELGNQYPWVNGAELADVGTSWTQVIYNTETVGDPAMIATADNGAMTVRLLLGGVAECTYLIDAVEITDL

Kd [1]: 1.5 ± 0.2 mM
Kd (CBM4-1 (M8)): 4.7 ± 0.4 mM
Kd (CBM4-2 (M9)): 1.8 ± 0.1 mM
SMILES: OC1OC[C@@H](O[C@@H]2OC[C@@H](O[C@@H]3OC[C@@H](O[C@@H]4OC[C@@H](O[C@@H]5OC[C@@H](O[C@@H]6OC[C@@H](O)[C@H](O)[C@H]6O)[C@H](O)[C@H]5O)[C@H](O)[C@H]4O)[C@H](O)[C@H]3O)[C@H](O)[C@H]2O)[C@H](O)[C@H]1O (stereo partly drawn) [X6, xylohexaose]
